Each block holds one compound with its values, some of them ahead of it.
Tests used:
[1] = biological target: [Pyruvate dehydrogenase (acetyl-transferring)] kinase isozyme 1, mitochondrial (Homo sapiens, UniProt Q15118); assay: Selectivity interaction (Kinase panel (Invitrogen)) EUB0000639a PDK1; conditions: at 200 nM
[2] = biological target: T1, Sphingosine kinase 2 (Homo sapiens) (UniProt Q9NRA0); assay: Selectivity interaction (Kinase panel (Invitrogen)) EUB0000639a SPHK2; conditions: at 200 nM
T1 sequence (whole entry): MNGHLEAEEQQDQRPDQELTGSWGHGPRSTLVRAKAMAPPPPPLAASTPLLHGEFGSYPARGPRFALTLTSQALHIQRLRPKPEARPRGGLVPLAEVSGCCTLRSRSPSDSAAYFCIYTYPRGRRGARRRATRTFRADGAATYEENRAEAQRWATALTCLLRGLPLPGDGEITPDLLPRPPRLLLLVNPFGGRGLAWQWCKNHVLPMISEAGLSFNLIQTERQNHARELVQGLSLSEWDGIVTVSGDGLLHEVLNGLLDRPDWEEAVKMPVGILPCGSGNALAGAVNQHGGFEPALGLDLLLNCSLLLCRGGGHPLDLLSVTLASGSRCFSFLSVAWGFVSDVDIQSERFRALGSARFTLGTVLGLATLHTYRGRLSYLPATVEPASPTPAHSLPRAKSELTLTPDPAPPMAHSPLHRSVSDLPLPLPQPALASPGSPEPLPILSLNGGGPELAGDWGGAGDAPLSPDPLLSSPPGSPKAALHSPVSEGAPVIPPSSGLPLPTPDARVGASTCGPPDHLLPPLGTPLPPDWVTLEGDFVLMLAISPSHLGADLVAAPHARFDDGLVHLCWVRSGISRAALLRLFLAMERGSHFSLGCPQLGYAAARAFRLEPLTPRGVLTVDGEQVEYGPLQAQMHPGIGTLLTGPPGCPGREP

[3] = biological target: T2, Dual specificity protein kinase TTK (Homo sapiens) (UniProt P33981); assay: Selectivity interaction (Kinase panel (Invitrogen)) EUB0000639a TTK; conditions: at 200 nM
T2 sequence (whole entry): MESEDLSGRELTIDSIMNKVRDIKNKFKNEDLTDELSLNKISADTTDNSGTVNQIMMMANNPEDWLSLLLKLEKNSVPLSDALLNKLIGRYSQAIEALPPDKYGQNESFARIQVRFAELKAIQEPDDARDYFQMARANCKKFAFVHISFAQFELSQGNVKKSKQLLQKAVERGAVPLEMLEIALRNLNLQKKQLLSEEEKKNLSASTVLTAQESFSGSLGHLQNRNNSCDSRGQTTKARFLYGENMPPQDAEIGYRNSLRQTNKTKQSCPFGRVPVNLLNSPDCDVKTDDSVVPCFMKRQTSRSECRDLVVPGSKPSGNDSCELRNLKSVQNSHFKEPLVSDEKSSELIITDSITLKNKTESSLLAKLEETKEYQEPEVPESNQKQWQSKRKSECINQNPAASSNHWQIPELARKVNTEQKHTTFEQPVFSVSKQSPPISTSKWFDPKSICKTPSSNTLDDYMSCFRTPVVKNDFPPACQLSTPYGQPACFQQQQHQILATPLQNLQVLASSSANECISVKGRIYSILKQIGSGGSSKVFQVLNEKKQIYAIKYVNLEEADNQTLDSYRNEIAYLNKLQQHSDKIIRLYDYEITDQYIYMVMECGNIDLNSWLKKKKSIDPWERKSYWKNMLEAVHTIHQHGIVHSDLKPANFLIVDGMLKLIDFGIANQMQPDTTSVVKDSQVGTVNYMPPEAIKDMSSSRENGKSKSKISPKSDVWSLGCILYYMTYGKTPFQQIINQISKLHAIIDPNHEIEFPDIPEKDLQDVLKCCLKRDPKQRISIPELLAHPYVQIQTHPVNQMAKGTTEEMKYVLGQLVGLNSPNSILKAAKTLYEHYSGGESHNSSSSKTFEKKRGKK

[4] = biological target: Casein kinase II subunit alpha (Homo sapiens, UniProt P68400); assay: Selectivity interaction (Kinase panel (Enzyme activity assay)) EUB0000612a CSNK2A1
[5] = biological target: T3, Ankyrin repeat and protein kinase domain-containing protein 1 (Homo sapiens) (UniProt Q8NFD2); assay: Selectivity interaction (KinomeScan (DiscoverX)) EUB0001619a ANKK1; conditions: at 1 µM
T3 sequence (whole entry): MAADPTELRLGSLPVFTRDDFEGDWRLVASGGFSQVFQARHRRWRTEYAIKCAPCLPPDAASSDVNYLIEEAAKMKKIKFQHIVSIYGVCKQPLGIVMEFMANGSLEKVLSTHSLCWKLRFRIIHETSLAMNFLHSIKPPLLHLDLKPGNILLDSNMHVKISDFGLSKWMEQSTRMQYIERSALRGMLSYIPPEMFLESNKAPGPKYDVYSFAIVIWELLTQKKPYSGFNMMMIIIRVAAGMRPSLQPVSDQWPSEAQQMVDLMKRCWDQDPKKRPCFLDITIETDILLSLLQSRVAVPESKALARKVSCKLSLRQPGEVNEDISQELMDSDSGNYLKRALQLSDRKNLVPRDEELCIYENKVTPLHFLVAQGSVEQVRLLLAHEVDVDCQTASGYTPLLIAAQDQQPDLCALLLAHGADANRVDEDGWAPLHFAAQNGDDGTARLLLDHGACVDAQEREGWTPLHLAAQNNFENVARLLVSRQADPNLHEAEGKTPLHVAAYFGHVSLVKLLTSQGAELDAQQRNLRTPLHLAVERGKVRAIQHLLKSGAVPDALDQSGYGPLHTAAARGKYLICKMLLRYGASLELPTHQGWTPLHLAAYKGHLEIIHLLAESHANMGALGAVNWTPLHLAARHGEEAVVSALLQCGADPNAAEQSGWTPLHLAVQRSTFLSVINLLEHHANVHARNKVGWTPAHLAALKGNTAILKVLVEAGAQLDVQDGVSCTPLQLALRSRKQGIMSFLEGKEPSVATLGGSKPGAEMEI

Sequence of Casein kinase II subunit alpha (P68400 whole entry, the tested form may be a part): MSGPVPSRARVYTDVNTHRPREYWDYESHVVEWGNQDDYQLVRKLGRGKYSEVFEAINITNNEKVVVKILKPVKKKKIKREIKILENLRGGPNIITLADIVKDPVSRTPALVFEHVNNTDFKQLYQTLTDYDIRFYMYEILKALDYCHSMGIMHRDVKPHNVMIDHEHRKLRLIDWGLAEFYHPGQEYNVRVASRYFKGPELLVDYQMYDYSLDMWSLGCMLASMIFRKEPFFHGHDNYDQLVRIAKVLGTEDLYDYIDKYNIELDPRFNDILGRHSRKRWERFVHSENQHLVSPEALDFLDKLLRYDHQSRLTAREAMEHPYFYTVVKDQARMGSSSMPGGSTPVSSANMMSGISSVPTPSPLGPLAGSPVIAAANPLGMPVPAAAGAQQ

% of inhibition [1]: 15.8% | % of inhibition [2]: -0.837% | % of inhibition [3]: 8.59%
Compound: CC[C@@H]1[C@H](F)C(=O)N[C@@H]1COc1nccc2cc(C(N)=O)c(OC)cc12 [ZIMLOVISERTIB]

IC50 [4]: 5.7 µM
Compound: CCc1cccc(CC)c1NC(=O)c1nn(C)c2c1CCc1cnc(Nc3ccc(C(=O)NC4CCN(C)CC4)cc3OC(F)(F)F)nc1-2

Compound: N#Cc1cccc(-c2c[nH]c3ncnc(N4CCOCC4)c23)c1
% of control [5]: 98%
